Some test systems named below: A498; UO-31; DU-145; HT-29; HL-60; UACC-257; MDA-MB-231; NCI-H522; RPMI-8226; IGROV-1; SW-620; SK-MEL-28; HCT-15; U-251; NCI-H226; MDA-N; KM12; OVCAR-3; SF-295; OVCAR-4.
What all share (assay): NCI-60 cell line screen, 48 h

Molecules are shown by their SMILES.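 1) Cells in 96-well plates. 2) Compound, 48 h, 5 concentrations. 3) Linear interpolation between surrounding doses. 4) Unreached endpoint = highest concentration. GI50: concentration for 50% inhibition of growth.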 Active and inactive are the calls of the source. Rule as the data show it: active = GI50 up to about 1.1 µM and inactive = higher.

As for `CC1=C2c3ccccc3N(S(=O)(=O)c3ccccc3)[C@H]2[C@H](C(=O)N2C3CC4CC[C@@]3(CS2(=O)=O)C4(C)C)CC1` (some centres not stated), the GI50 was 87.9 µM (inactive) in the assay with A498; 9.06 µM (inactive) with UO-31; > 100 µM (inactive) in the assay with DU-145; 17.6 µM (inactive) in the assay on HT-29; 0.641 µM (active) in the assay with HL-60; 33.7 µM (inactive) with UACC-257. The GI50 in the assay with MDA-MB-231 was > 100 µM (inactive); in the assay with NCI-H522, 10.8 µM (inactive); with RPMI-8226, 0.334 µM (active); in the assay with IGROV-1, 59.4 µM (inactive); in the assay with SW-620, > 100 µM (inactive); in the assay on SK-MEL-28, > 100 µM (inactive). Moreover, the GI50 was 5.36 µM in the assay on HCT-15; 6.59 µM (inactive) in the assay on U-251; 37.4 µM (inactive) in the assay with NCI-H226; > 10 µM (inactive) in the assay with MDA-N; 49.5 µM (inactive) in the assay on KM12; 17 µM (inactive) with OVCAR-3. In addition, the GI50 with SF-295 was 1.71 µM (inactive); in the assay with OVCAR-4, 64 µM (inactive).

In the case of `C#CC(O)/C=C/C(O)CCCC(O)CC#CC(O)C#CC(O)CCCC(O)/C=C/CCCCCC(=O)CCCCCCCCCCCCCC(O)C(O)C#CC(=O)O` (configuration not stated), the GI50 in the assay on A498 is > 50 µM (inactive); in the assay with UO-31, > 50 µM (inactive); in the assay with DU-145, > 50 µM (inactive); in the assay on HT-29, 19.3 µM (inactive); in the assay on HL-60, 26.8 µM (inactive); in the assay on UACC-257 it was > 50 µM (inactive). The GI50 with MDA-MB-231 is 12.1 µM (inactive); with NCI-H522, 8.89 µM (inactive); in the assay on RPMI-8226 it was 26.5 µM (inactive); in the assay with IGROV-1, 13.7 µM (inactive); in the assay on SK-MEL-28 it was 12 µM (inactive); with HCT-15 it was greater than 50 µM. Also, the GI50 in the assay on U-251 is > 50 µM (inactive); in the assay with NCI-H226, > 50 µM (inactive); in the assay with MDA-N it was > 50 µM (inactive); in the assay on KM12, > 50 µM (inactive); in the assay with SF-295, > 50 µM (inactive); in the assay with OVCAR-4, 9.02 µM (inactive).

Regarding `Cc1c(-c2ccccc2)c(C#N)c2nnn(C3CCCCC3)c(=O)n12`, the GI50 in the assay on A498 is 65.8 µM (inactive); in the assay on UO-31, 0.74 µM (active); in the assay on DU-145, > 100 µM (inactive); with HT-29, 11.6 µM (inactive); in the assay on HL-60, > 100 µM (inactive); with UACC-257, > 100 µM (inactive). The GI50 in the assay with MDA-MB-231 is 21.6 µM (inactive); with NCI-H522 it was > 100 µM (inactive); in the assay on RPMI-8226, 47.4 µM (inactive); in the assay on IGROV-1 it was 60.4 µM (inactive); in the assay with SW-620 it was > 100 µM (inactive); in the assay on SK-MEL-28, > 100 µM (inactive). Also, the GI50 is greater than 100 µM in the assay with HCT-15; 53.2 µM (inactive) in the assay with U-251; 35.8 µM (inactive) in the assay with NCI-H226; > 100 µM (inactive) in the assay on MDA-N; > 100 µM (inactive) with KM12; > 100 µM (inactive) with OVCAR-3. For the same compound, the GI50 with SF-295 is 29.5 µM (inactive); in the assay on OVCAR-4, 40.6 µM (inactive).

Regarding `COc1ccc(C2c3cc4c(cc3OC(NNS(=O)(=O)c3ccc(C)cc3)C2C)OCO4)cc1` (configuration not stated), the GI50 in the assay with A498 is 78.5 µM (inactive); with UO-31, 31.2 µM (inactive); with DU-145, > 100 µM (inactive); with HT-29, 93.8 µM (inactive); in the assay with HL-60, 21.6 µM (inactive); with UACC-257, 52.6 µM (inactive). The GI50 in the assay with MDA-MB-231 is > 100 µM (inactive); with NCI-H522 it was 11.8 µM (inactive); in the assay on RPMI-8226 it was 12.5 µM (inactive); with IGROV-1, 57.1 µM (inactive); in the assay with SW-620, 73.5 µM (inactive); in the assay on SK-MEL-28, > 100 µM (inactive). For the same compound, the GI50 is 70.1 µM with HCT-15; 83.4 µM (inactive) in the assay on U-251; > 100 µM (inactive) in the assay on NCI-H226; 58.3 µM (inactive) in the assay with MDA-N; 65.9 µM (inactive) in the assay with KM12; 80.7 µM (inactive) with OVCAR-3. Besides, the GI50 in the assay with SF-295 is 21.9 µM (inactive).

For `CCOC(=O)Nc1[nH]cc(-c2ccccc2)c1C#N`, the GI50 in the assay with A498, in the assay with UO-31, in the assay with DU-145, with HT-29, in the assay on HL-60 and with MDA-MB-231 was > 100 µM (inactive) each time. Moreover, the GI50 in the assay with NCI-H522 was > 100 µM (inactive); in the assay with RPMI-8226, > 100 µM (inactive); with IGROV-1, > 100 µM (inactive); in the assay with SW-620, > 100 µM (inactive); with SK-MEL-28 it was > 100 µM (inactive); in the assay on HCT-15, greater than 100 µM. The GI50 in the assay with U-251, with NCI-H226, in the assay with MDA-N, in the assay on KM12, in the assay on OVCAR-3 and in the assay on SF-295 was > 100 µM (inactive) each time. Further, in the assay on OVCAR-4, the GI50 was > 100 µM (inactive).

As to `O=[N+]([O-])/C(Cl)=C(/C(Cl)=C(Cl)Cl)N1CCCCC1`, the GI50 with A498 is 18.4 µM (inactive); in the assay with UO-31, 8.15 µM (inactive); in the assay on DU-145, 14 µM (inactive); with HT-29 it was 14.9 µM (inactive); with HL-60, 2.64 µM (inactive); in the assay on MDA-MB-231 it was 24 µM (inactive). Besides, the GI50 is 6.44 µM (inactive) in the assay with NCI-H522; 4.43 µM (inactive) with RPMI-8226; 10.6 µM (inactive) in the assay with IGROV-1; 14.5 µM (inactive) in the assay on SK-MEL-28; 4.36 µM with HCT-15; 11.8 µM (inactive) in the assay with U-251. For the same compound, the GI50 with NCI-H226 is 13.9 µM (inactive); in the assay on MDA-N, 8.34 µM (inactive); with KM12 it was 14.5 µM (inactive); with OVCAR-3, 10.8 µM (inactive); in the assay on SF-295 it was 23.7 µM (inactive); with OVCAR-4, 13.8 µM (inactive).

On to `O=C(Cc1cccs1)N[C@@H]1C(=O)N2C(C(=O)OC(c3ccccc3)c3ccccc3)=C(CO)CS[C@H]12`, for which the GI50 in the assay on A498 was > 100 µM (inactive); with UO-31, 17.9 µM (inactive); with DU-145, > 100 µM (inactive); in the assay on HL-60 it was 46.6 µM (inactive); in the assay with UACC-257, > 100 µM (inactive); in the assay with MDA-MB-231, > 100 µM (inactive). In addition, the GI50 was 16.8 µM (inactive) in the assay on NCI-H522; 96.2 µM (inactive) in the assay with RPMI-8226; 29.9 µM (inactive) in the assay on IGROV-1; > 100 µM (inactive) in the assay on SW-620; 92.7 µM with HCT-15; > 100 µM (inactive) in the assay on U-251. In addition, the GI50 was 0.0283 µM (active) in the assay on NCI-H226; > 100 µM (inactive) in the assay with MDA-N; 38.1 µM (inactive) in the assay with KM12; > 100 µM (inactive) in the assay with OVCAR-3; > 100 µM (inactive) in the assay with SF-295; 74.3 µM (inactive) in the assay with OVCAR-4.

For `COC(=O)C1(C)C=CC(=O)C2(C)C1C(O)C1OC3CC(c4ccoc4)C(C)=C3C1(C)C2CC(=O)O` (configuration not stated), the GI50 in the assay with A498, in the assay on UO-31, with DU-145, in the assay on HL-60, in the assay with UACC-257 and in the assay on MDA-MB-231 was > 100 µM (inactive) throughout. Also, the GI50 in the assay on NCI-H522 is > 100 µM (inactive); with RPMI-8226, > 100 µM (inactive); with IGROV-1 it was > 100 µM (inactive); in the assay on SW-620 it was > 100 µM (inactive); with SK-MEL-28 it was > 100 µM (inactive); in the assay on HCT-15, greater than 100 µM. The GI50 in the assay on U-251, with MDA-N, in the assay with KM12, in the assay on OVCAR-3, with SF-295 and with OVCAR-4 was > 100 µM (inactive) in each case.

Consider `OCCOCCO[P+]1(OCCOCCO)n2c3ccc2C(c2ccccc2)=C2C=CC(=N2)C(c2ccccc2)=c2ccc(n21)=C(c1ccccc1)C1=NC(=C3c2ccccc2)C=C1`, for which the GI50 was 8.57 µM (inactive) in the assay on A498; 1.86 µM (inactive) in the assay on UO-31; 0.112 µM (active) in the assay on DU-145; 0.0845 µM (active) in the assay with HT-29; 0.0235 µM (active) in the assay on HL-60; 0.0268 µM (active) in the assay on UACC-257. Moreover, the GI50 was 0.0736 µM (active) with MDA-MB-231; 0.186 µM (active) with NCI-H522; 0.0142 µM (active) with RPMI-8226; 0.0261 µM (active) in the assay with IGROV-1; 0.184 µM (active) in the assay on SW-620; 0.0631 µM (active) in the assay on SK-MEL-28. Moreover, the GI50 in the assay on HCT-15 is 1.51 µM; in the assay with NCI-H226, 0.162 µM (active); with MDA-N it was 0.0314 µM (active); in the assay on KM12, 0.0331 µM (active); in the assay on OVCAR-3, 0.033 µM (active); in the assay on SF-295, 0.281 µM (active). The GI50 with OVCAR-4 was 0.209 µM (active).

Regarding `CC(=O)O[C@H]1C(=O)[C@@]2(C)[C@H]([C@H](OC(=O)c3ccccc3)[C@]3(O)C[C@H](OC(=O)[C@H](O)[C@@H](NC(=O)C(C)(O)C(C)O)c4ccccc4)C(C)=C1C3(C)C)[C@]1(OC(C)=O)CO[C@@H]1C[C@@H]2O` (some centres not stated), the GI50 was 9.44 µM (inactive) in the assay with A498; 27.6 µM (inactive) with UO-31; 0.927 µM (active) in the assay with DU-145; 0.128 µM (active) with HT-29; 0.0859 µM (active) with HL-60; 0.381 µM (active) in the assay with UACC-257. Further, the GI50 was 0.359 µM (active) in the assay on MDA-MB-231; 0.107 µM (active) with NCI-H522; 0.0865 µM (active) with RPMI-8226; 0.205 µM (active) in the assay with IGROV-1; 0.195 µM (active) with SW-620; 17 µM in the assay on HCT-15. Moreover, the GI50 in the assay on U-251 is 0.239 µM (active); with MDA-N, 0.0308 µM (active); in the assay with KM12 it was 0.167 µM (active); in the assay with OVCAR-3, 0.172 µM (active); in the assay with SF-295, 3.72 µM (inactive); with OVCAR-4, 13.2 µM (inactive).

The values above are taken from ChEMBL document CHEMBL1201862, “PubChem BioAssay data set” (2004).
